Results from US12180207B2 (ARRAY BIOPHARMA INC., priority 2018, dated 2024).

Columns and labels:
[1] = molecular target: HEK-293 cells transfected with dox-inducible human wild type FGFR1 (Homo sapiens (Human), UniProt P11362); assay: FGFR1 pERK cell assay; format: cell-based; conditions: HEK-293 dox-inducible FGFR1, 1 hour compound, 100 ng/ml FGF-acidic; maximum concentration 5 μM
Protocol: (§1) FGFR1 pERK Cell Assay: • HEK-293 cells transfected with doxycycline(dox)-inducible human wild type FGFR1 (SEQ ID NO: 1) were plated in a collagen or poly-D-lysine coated 96 well flat bottom plates at 4×10^5 cells/well in complete Dulbecco's Modified Eagle Medium (DMEM) containing 10% FBS and 1 μg/ml doxycycline and allowed to attach for 24 h at 37° C., 5% CO2. Cells were treated with compound using 1:3 serial dilutions with a maximum final concentration of 5 μM. Compound was incubated on cells for 1 hour at 37° C., 5% CO2. Cells were then stimulated with a final concentration of 100 ng/ml human FGF-acidic (R&D Systems Cat number 232-FA/CF) for 5 minutes at 37° C., 5% CO2. Medium was removed, and cells were lysed with lysis buffer containing phosphatase and protease inhibitors. Phospho ERK1/2 was measured using the Meso Scale Discovery sandwich assay (Meso Scale Discovery cat. no. K151DWD). The assay captures phospho ERK1/2 and detects with a sulfo-tagged total ERK1/2 antibody. The chemiluminescent signal was read on the Sector Imager Plate reader. 100 POC was determined using no test compound and 0 POC was determined using a control compound. The POC values were fit to a 4-parameter logistic curve as a function of the concentration of the compound, and the IC50 value is the point where the curve crosses 50 POC.

[2] = molecular target: HEK-293 cells transfected with dox-inducible human wild type FGFR2 (Homo sapiens (Human), UniProt P21802); assay: FGFR2 pFGFR cell assay (ELISA); format: cell-based; conditions: HEK-293 dox-inducible FGFR2, 1 hour compound, 30 ng/ml FGF-acidic
Protocol: (§2) FGFR2 pFGFR Cell Assay: • HEK-293 cells transfected with dox-inducible human wild type FGFR2 (SEQ ID NO: 3) were plated in a collagen or poly-D-lysine coated 96 well flat bottom plates at 4×10^5 cells/well in complete DMEM medium containing 10% FBS and 1 μg/ml doxycycline and allowed to attach for 24 h at 37° C., 5% CO2. Cells were treated with compound using 1:3 serial dilutions with a maximum final concentration of 5 μM. Compound was incubated on cells for 1 hour at 37° C., 5% CO2. Cells were then stimulated with a final concentration of 30 ng/ml human FGF-acidic (R&D Systems Cat number 232-FA/CF) for 5 minutes at 37° C., 5% CO2. Medium was removed and cells were lysed with lysis buffer containing phosphatase and protease inhibitors. Phospho FGFR2 was measured by ELISA (R&D Systems cat. no. DYC684). The ELISA captures total FGFR2 and detects total phospho tyrosine. Optical density was measured for each well using a Versamax reader at a wavelength of 450 nm. 100 POC was determined using no test compounds and 0 POC was determined using a control compound. The POC values were fit to a 4-parameter logistic curve as a function of the concentration of the compound, and the IC50 value is the point where the curve crosses 50 POC.

[3] = molecular target: T1, HEK-293 cells transfected with dox-inducible human wild type FGFR3 (Homo sapiens (Human), UniProt P22607); assay: FGFR3 pERK cell assay; format: cell-based; conditions: HEK-293 dox-inducible FGFR3, 1 hour compound, 100 ng/ml FGF-acidic; maximum concentration 5 μM
Protocol: as §1, with “FGFR3 pERK” for “FGFR1 pERK”, “with dox-inducible” for “with doxycycline(dox)-inducible”, “type FGFR3” for “type FGFR1”, “NO: 5)” for “NO: 1)”, “complete DMEM medium” for “complete Dulbecco's Modified Eagle Medium (DMEM)”, “test compounds” for “test compound”

[4] = molecular target: recombinant human FGFR1 catalytic domain (amino acids 308-731) (Homo sapiens (Human), UniProt P11362); assay: FGFR1 enzyme activity assay (LanthaScreen TR-FRET); format: biochemical; conditions: 20 min incubation at 22° C., average of multiple determinations if made, read-out: FGFR1 Enz FRET IC50
Outline: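 His-tagged FGFR1 kinase domain with 100 nM Alexa Fluor 647-poly-GT peptide and ATP in pH 7.5 HEPES/MgCl2 buffer with 2% DMSO, 20 min at 22 °C. Quenched with EDTA plus 2 nM Eu-PY20 antibody and read after 60 min. IC50 comes from a 4-parameter fit of percent of control.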

[5] = molecular target: dephosphorylated FGFR1 (SEQ ID NO: 1, amino acids 458 to 765) (Homo sapiens (Human), UniProt P11362); assay: FGFR enzyme binding assay (HTRF tracer displacement), FGFR1; conditions: 5 nM dephosphorylated FGFR1, average of multiple determinations if made
Outline: (§3)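 Kinase and tracer were incubated with compound for 60 minutes at 22° C. Tracer displacement was then measured by HTRF, and results were expressed as POC with 1 μM control inhibitor defining full displacement.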

[6] = molecular target: FGFR1 (SEQ ID NO: 1, amino acids 458-765) (Homo sapiens (Human), UniProt P11362); assay: LC/MS FGFR1 kobs assay (covalent protein modification); format: binding; conditions: 500 nM FGFR1, 3 μM compound
Outline: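 Covalent labeling of FGFR1 kinase domain (aa 458-765) tracked over time by intact-protein LC/MS after formic acid quench. kobs derived by fitting DMSO-normalized percent unmodified FGFR1 to an exponential decay model.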

[7] = molecular target: phosphorylated FGFR3 (SEQ ID NO: 5, amino acids 449 to 759) (Homo sapiens (Human), UniProt P22607); assay: FGFR enzyme binding assay (HTRF tracer displacement), FGFR3; conditions: 5 nM phosphorylated FGFR3, average of multiple determinations if made
Outline: as §3

[8] = molecular target: T1, HEK-293 cells transfected with dox-inducible human wild type FGFR3; assay: FGFR3 pFGFR cell assay (ELISA); format: cell-based; conditions: HEK-293 dox-inducible FGFR3, 1 hour compound, 100 ng/ml FGF-acidic
Protocol: as §2, with “FGFR3” for “FGFR2”, “5)” for “3)”, “top” for “maximum”, “100” for “30”, “FGF-acidic” for “FGF-acidic (R&D Systems Cat number 232-FA/CF)”, “cat DYC2719).” for “cat. no. DYC684).”

[9] = molecular target: recombinant human FGFR3 (amino acids R397-T806) (Homo sapiens (Human), UniProt P22607); assay: FGFR3 enzyme activity assay (LanthaScreen TR-FRET); format: biochemical; conditions: 25 μM ATP, 10 min incubation at 22° C., average of multiple determinations if made, read-out: FGFR3 Enz FRET IC50
Outline: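 GST-HIS6-tagged human FGFR3 (R397-T806) was reacted with 100 nM Alexa Fluor 647-Poly-GT substrate and 25 μM ATP plus compound in HEPES/MgCl2/Triton buffer, pH 7.5, 2% DMSO, for 10 min at 22 °C.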

T1 sequence (P22607 23-806): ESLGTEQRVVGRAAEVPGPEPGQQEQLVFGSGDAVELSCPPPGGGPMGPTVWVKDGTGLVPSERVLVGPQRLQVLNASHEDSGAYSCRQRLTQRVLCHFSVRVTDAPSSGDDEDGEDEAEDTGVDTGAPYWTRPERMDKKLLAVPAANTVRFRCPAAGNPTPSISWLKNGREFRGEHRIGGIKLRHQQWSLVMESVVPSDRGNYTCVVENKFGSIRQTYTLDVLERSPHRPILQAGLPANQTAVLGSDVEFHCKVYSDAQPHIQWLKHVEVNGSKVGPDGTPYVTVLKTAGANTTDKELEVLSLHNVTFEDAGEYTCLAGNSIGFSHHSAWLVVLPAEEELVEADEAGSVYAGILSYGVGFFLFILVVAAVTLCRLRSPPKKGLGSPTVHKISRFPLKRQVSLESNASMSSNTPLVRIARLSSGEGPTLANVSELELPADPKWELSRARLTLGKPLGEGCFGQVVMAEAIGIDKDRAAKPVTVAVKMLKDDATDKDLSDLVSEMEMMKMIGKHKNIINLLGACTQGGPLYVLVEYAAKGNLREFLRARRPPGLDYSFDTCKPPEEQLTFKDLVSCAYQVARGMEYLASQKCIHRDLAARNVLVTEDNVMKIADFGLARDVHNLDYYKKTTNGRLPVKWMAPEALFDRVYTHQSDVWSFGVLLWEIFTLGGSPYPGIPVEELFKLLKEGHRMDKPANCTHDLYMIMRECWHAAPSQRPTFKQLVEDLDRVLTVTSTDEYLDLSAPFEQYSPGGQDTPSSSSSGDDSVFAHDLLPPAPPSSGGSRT
Sequence of HEK-293 cells transfected with dox-inducible human wild type FGFR2 (P21802 22-821): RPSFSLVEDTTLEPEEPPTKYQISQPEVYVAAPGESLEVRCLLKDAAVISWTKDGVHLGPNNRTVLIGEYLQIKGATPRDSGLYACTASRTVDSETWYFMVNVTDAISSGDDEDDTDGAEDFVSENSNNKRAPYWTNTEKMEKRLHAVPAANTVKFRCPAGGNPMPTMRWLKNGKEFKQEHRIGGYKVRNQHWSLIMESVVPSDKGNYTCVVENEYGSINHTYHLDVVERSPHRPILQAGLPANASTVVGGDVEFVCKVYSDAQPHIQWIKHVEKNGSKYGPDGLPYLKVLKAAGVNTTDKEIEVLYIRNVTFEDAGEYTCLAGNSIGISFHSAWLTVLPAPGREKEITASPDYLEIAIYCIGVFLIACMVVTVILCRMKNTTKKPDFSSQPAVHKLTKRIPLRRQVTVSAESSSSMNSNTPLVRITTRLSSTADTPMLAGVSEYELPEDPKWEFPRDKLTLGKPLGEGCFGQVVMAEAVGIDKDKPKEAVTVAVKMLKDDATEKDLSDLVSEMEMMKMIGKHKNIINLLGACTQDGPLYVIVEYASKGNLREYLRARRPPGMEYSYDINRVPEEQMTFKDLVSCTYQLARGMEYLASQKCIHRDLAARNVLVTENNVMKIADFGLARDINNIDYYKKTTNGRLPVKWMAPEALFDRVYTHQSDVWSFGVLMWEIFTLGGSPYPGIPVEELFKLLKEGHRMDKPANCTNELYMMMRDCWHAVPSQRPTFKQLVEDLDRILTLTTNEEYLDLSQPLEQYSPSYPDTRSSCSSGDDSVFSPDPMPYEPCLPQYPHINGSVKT
Sequence of dephosphorylated FGFR1 (SEQ ID NO: 1, amino acids 458 to 765) (P11362 458-765): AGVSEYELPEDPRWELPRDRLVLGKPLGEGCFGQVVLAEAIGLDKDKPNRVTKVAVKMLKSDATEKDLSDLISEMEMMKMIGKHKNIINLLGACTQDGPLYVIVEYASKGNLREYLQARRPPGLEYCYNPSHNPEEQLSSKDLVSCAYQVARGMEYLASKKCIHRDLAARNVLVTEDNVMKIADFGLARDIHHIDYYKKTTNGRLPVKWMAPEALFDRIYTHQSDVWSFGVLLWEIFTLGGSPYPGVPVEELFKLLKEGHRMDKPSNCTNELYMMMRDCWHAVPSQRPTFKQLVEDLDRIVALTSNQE
Sequence of FGFR1 (SEQ ID NO: 1, amino acids 458-765) (P11362 458-765): as above
Sequence of HEK-293 cells transfected with dox-inducible human wild type FGFR1 (P11362 22-822): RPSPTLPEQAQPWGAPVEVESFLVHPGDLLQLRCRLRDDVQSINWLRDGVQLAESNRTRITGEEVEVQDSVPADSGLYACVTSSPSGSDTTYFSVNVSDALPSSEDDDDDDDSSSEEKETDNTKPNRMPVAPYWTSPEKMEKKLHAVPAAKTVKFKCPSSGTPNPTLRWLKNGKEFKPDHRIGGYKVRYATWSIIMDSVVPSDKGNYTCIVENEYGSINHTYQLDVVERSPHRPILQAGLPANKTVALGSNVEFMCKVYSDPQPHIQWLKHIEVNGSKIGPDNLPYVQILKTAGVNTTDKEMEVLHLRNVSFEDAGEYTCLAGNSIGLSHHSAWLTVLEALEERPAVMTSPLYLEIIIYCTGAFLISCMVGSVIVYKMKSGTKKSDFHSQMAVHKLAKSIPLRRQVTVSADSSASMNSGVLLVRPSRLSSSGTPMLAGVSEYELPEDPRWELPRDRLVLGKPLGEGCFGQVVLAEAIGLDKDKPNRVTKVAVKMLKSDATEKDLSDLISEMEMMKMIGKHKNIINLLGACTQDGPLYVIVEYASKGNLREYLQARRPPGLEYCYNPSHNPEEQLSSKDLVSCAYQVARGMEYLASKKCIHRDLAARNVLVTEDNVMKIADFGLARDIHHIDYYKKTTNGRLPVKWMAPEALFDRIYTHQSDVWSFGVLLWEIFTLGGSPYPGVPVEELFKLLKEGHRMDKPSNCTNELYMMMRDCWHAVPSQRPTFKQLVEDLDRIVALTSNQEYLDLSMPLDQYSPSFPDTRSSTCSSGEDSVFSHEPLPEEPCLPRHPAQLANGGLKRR
Sequence of recombinant human FGFR1 catalytic domain (amino acids 308-731) (P11362 other isoform, or with tags, fused parts or gaps): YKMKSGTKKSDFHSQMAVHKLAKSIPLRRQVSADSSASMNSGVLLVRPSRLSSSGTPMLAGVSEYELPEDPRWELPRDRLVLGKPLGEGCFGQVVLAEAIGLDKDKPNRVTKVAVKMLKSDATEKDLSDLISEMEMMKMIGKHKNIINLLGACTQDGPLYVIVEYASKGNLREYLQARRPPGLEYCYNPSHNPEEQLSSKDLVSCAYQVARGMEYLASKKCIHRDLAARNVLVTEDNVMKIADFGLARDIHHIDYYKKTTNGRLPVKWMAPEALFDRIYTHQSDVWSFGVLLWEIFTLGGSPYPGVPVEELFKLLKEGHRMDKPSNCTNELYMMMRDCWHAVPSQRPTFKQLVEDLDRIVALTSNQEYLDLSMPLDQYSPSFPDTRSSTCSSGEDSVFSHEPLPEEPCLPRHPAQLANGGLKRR
Sequence of phosphorylated FGFR3 (SEQ ID NO: 5, amino acids 449 to 759) (P22607 449-759): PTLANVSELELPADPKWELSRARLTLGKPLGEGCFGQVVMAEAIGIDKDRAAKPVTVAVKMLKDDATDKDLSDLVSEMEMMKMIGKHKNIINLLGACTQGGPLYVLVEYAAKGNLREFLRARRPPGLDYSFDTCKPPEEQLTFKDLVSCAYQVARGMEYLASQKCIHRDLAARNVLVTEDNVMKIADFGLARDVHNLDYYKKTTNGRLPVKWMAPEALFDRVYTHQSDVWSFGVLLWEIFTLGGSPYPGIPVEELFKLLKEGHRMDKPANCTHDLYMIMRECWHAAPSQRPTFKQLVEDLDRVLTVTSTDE
Sequence of recombinant human FGFR3 (amino acids R397-T806) (P22607 397-806): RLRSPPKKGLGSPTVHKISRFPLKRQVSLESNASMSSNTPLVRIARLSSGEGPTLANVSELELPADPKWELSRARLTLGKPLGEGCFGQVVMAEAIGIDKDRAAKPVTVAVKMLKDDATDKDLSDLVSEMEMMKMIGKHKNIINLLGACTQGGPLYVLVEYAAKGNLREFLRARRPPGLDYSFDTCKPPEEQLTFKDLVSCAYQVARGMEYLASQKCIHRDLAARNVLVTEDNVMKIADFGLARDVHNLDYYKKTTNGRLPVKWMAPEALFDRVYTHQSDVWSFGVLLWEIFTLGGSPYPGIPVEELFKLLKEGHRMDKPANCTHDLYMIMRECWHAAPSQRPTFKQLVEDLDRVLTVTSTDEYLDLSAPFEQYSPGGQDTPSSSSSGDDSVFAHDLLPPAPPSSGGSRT

| IC50 [1] [nM] | IC50 [2] [nM] | IC50 [3] [nM] | IC50 [4] [nM] | IC50 [5] [nM] | FGFR1 Enz kobs [6] [min⁻¹] | IC50 [7] [nM] | IC50 [8] [nM] | IC50 [9] [nM] | SMILES |
| --- | --- | --- | --- | --- | --- | --- | --- | --- | --- |
| 769 | 424 | 119 | – | – | – | – | – | – | COc1cc(-c2cnn(C3CCN(C(=O)C4CN(C(=O)/C=C/CF)C4)CC3)c2)cn2ncc(C#N)c12 [Example 142] |
| – | 34 | – | – | – | – | – | – | – | COc1cc(-c2cnn(C3CCN(C(=O)/C=C/CN(C)C)CC3)c2)cn2ncc(C#N)c12 [Example 144, (E)-6-(1-(1-(4-(dimethylamino)benoyl)piperidin-4-yl)-1H-pyrazol-4-yl)-4-methoxypyrazol14 5o[1,5-a]pyridine-3-carbonitrile] |
| – | – | – | 1200 | 136 | 0.0497 | 15 | 18 | 1160 | COc1cc(-c2cnn(C3CCN(C(=O)C4CN(C(=O)C#CCN(C)C)C4)CC3)c2)cn2ncc(C#N)c12 [Example 176, 6-(1-(1-(1-(4-(dimethylamino)but-2-ynoyl)azetidine-3-carbonyl)piperidin-4-yl)-1H-pyrazol-4-yl)-4-methoxypyrazolo[1,5-a]pyridine-3-carbonitrile] |
